pIC50: −log10 of the molar value. Calls of active or inactive are those of the source. No cut-off for these calls is given here.
Legend:
[1] = molecular target: T1, Protein cereblon/Bromodomain-containing protein 4/Cullin-4A (Homo sapiens) (UniProt O60885+Q96SW2+Q13619); assay: Protac activity at cereblon/cullin4A/BRD4 in human MV4-11 cells assessed as induction of BRD4 degradation at 100 nM measured after >= 8 hrs by Western blot analysis; assay type: cell-based
MOLM-13 = assay: Antiproliferative activity against human MOLM13 cells assessed as reduction in cell viability measured after 48 hrs by CellTiter-Glo assay; assay type: functional, cell-based; settings: MOLM-13, 48 h
[2] = molecular target: T1, Protein cereblon/Bromodomain-containing protein 4/Cullin-4A (Homo sapiens); assay: Protac activity at cereblon/cullin4A/BRD4 in human MV4-11 cells assessed as downregulation of c-Myc at 50 nM measured after 18 hrs by Western blot analysis; assay type: cell-based
[3] = molecular target: T1, Protein cereblon/Bromodomain-containing protein 4/Cullin-4A (Homo sapiens); assay: Protac activity at cereblon/cullin4A/BRD4 in human MV4-11 cells assessed as induction of BRD4 degradation at 500 nM measured after 18 hrs by Western blot analysis relative to control; assay type: cell-based
MV4-11 [4] = assay: Antiproliferative activity against human MV4-11 cells assessed as reduction in cell viability measured after 48 hrs by CellTiter-Glo assay; assay type: functional, cell-based; settings: MV4-11, 48 h
[5] = molecular target: T1, Protein cereblon/Bromodomain-containing protein 4/Cullin-4A (Homo sapiens); assay: Protac activity at cereblon/cullin4A/BRD4 in human MV4-11 cells assessed as induction of BRD4 degradation at 100 nM measured after 1 to 4 hrs by Western blot analysis; assay type: cell-based
[6] = molecular target: T2, Bromodomain-containing protein 4 (Homo sapiens, UniProt O60885); assay: Selectivity index, ratio of IC50 for BRD4 BD2 (unknown origin) to IC50 for BRD4 BD1 (unknown origin)
MV4-11 [7] = assay: Induction of apoptosis in human MV4-11 cells at 10 uM measured after 24 hrs by Annexin V-FITC/propidium iodide staining based FACScan flow cytometry relative to control; assay type: functional
[8] = molecular target: T2, Bromodomain-containing protein 4; assay: Binding affinity to recombinant human N-terminal His-tagged BRD4 BD2 (349 to 460 residues) expressed in Escherichia coli measured after 30 mins by AlphaScreen assay
[9] = molecular target: T2, Bromodomain-containing protein 4; assay: Binding affinity to recombinant human N-terminal His-tagged BRD4 BD1 (44 to 170 residues) expressed in Escherichia coli using H4K5AcK8Ac as substrate measured after 30 mins by AlphaScreen assay

Compound | pIC50 (MOLM-13) | pIC50 (MV4-11 [4]) | further results
COc1ccccc1S(=O)(=O)Nc1ccc2c3c(cc(CCC(=O)NCCCNc4cccc5c4C(=O)N(C4CCC(=O)NC4=O)C5=O)cc13)C(=O)N2C (centres undefined) | 6.75 | 7.60 | Activity [1]: Active; Activity [2]: Active; Activity [3]: 100%; Activity [5]: Active
COc1ccccc1S(=O)(=O)Nc1ccc2c3c(cc(CCC(=O)NCCCCCCNc4cccc5c4C(=O)N(C4CCC(=O)NC4=O)C5=O)cc13)C(=O)N2C (centres undefined) | < 5.00 | 5.46 | 
COc1ccccc1S(=O)(=O)Nc1ccc2c3c(cccc13)C(=O)N2C | 5.47 | 6.43 | Ratio IC50 [6]: 50; Activity (MV4-11 [7]): 86.07%
COc1ccccc1S(=O)(=O)Nc1ccc2c3c(cc(CCC(=O)NCCCCCNc4cccc5c4C(=O)N(C4CCC(=O)NC4=O)C5=O)cc13)C(=O)N2C (centres undefined) | 6.75 | 7.49 | 
COC(=O)CCc1cc2c3c(ccc(NS(=O)(=O)c4ccccc4OC)c3c1)N(C)C2=O |  |  | pIC50 [8]: 5.43; pIC50 [9]: 6.44
COc1ccccc1S(=O)(=O)Nc1ccc2c3c(cc(CCC(=O)NCCNc4cccc5c4C(=O)N(C4CCC(=O)NC4=O)C5=O)cc13)C(=O)N2C (centres undefined) | < 5.00 | 5.78 | 
Cc1sc2c(c1C)C(c1ccc(Cl)cc1)=N[C@@H](CC(=O)OC(C)(C)C)c1nnc(C)n1-2 |  | 7.09 | 
